Literature values, collected in patent publication US12194020B2, “Reversing baldness through cannabinoid receptor activation” (priority 2017, dated 2025).

Key:
[1] = tested on: human scalp hair follicles (HF); settings: human HF organ culture
[2] = molecular target: CB2 (Homo sapiens, UniProt P34972)
[3] = bimatoprost applied to the base of the fingernails
[4] = tested on: NO production; settings: read-out: IC50, inhibits NO production
[5] = tested on: CB1

Chain of CB2 (P34972 whole entry, species assumed): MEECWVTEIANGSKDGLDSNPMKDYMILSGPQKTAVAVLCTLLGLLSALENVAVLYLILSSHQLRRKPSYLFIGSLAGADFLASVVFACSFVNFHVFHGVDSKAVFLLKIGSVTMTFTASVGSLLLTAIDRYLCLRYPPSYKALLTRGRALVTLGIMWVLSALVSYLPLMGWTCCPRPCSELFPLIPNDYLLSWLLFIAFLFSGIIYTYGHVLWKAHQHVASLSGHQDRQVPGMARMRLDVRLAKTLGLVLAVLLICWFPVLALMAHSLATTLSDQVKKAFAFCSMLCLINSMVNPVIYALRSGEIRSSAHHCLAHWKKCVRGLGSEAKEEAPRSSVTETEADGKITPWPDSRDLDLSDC

Compound: CCCCC/C=C\C/C=C\C/C=C\C/C=C\CCCC(=O)NCCO [AEA, N-arachidonoylethanolamide]
- apoptosis of cultured human HF / hair matrix keratinocytes [1]: stimulates apoptosis
- hair matrix / HF keratinocyte proliferation [1]: significantly (P<0.05) and dose-dependently inhibited
- hair shaft elongation [1]: significantly (P<0.05) and dose-dependently inhibited

Compound: Cc1c(C(=O)NN2CCCCC2)nn(-c2ccc(Cl)cc2Cl)c1-c1ccc(Cl)cc1 [SR141716A]
- affinity for CB2 [2]: very low affinity

Compound: CCCCCc1cc(O)c2c(c1)OC(C)(C)[C@@H]1CCC(C)=C[C@@H]21 [THC, Δ^9-tetrahydrocannabinol]
- apoptosis of cultured human HF / hair matrix keratinocytes [1]: induced
- catagen development [1]: premature catagen development
- hair matrix / HF keratinocyte proliferation [1]: suppressed proliferation
- hair shaft elongation [1]: significantly inhibited

Compound: CCNC(=O)CCC/C=C\C[C@@H]1[C@@H](/C=C/[C@@H](O)CCc2ccccc2)[C@H](O)C[C@@H]1O [bimatoprost]
- increase in fingernail growth from baseline [3]: 16.9%

Compound: C=CCc1ccc(O)c(-c2cc(CC=C)ccc2O)c1 [magnolol]
- IC50 [4]: ~6.2 µM

Compound: desulfohaplosamate
- affinity for CB2 [2]: higher affinity

Compound: haplosamate A
- affinity for CB1 [5]: strong affinity
